Assay [1] relates to PAP-specific IFNγ-secreting T cells (PBMC). The assay is described as follows: IFNγ ELISPOT of patient PBMC stimulated with PAP antigen. In kind it is cell-based, human. The conditions noted are these: PBMC from 22 patients after vaccine and pembrolizumab; IDO enzyme 5 ug/mL or 1-MDT 2 mM; 48 hours; changes not statistically significant. The procedure:
ELISPOT for measuring IFNγ release was performed as previously described (21). For these analyses, cryopreserved PBMC were thawed, and cultured with PAP protein antigen (Fitzgerald Industries, Acton, Mass.), media alone, or phytohemaglutinin (PHA). Stimulations were also conducted in the presence of IDO enzyme (5 ug/mL) or 1-MDT (2 mM). After 48 hours, plates were developed and spots enumerated using an automated ELISPOT reader (ImmunoSpot, CTL, Shaker Heights, Ohio).
IDO activity is associated with modest decrease in vaccine antigen-specific T-cell function.

The subject of another assay is IDO activity. The assay is described as follows: Serum kynurenine-to-tryptophan (kyn:trp) ratio as measure of IDO activity in treated mCRPC patients. In kind it is in vivo, human. The following applies: patients with mCRPC. The protocol: Tryptophan and kynurenine concentrations were measured directly in serum samples using a clinically validated LC/MS method. All analysis was performed by Worldwide Clinical Trials (Morrisville, N.C.) by personnel blinded to the sample source.
Patients with prostate cancer treated with an anti-tumor vaccine and/or PD-1 develop increased IDO activity and expression. […] Because IDO is also an IFNγ-regulated gene, we questioned whether prostate cancer immunotherapy similarly elicited increases in IDO expression. We have recently reported the results of a trial in which patients with mCRPC were treated with a DNA vaccine encoding PAP alone for 12 weeks, followed by pembrolizumab over the subsequent 12 weeks, or were treated with both agents for 12 weeks (17). Sera was assessed for kynurenine and tryptophan concentrations at baseline and at 12 and 24 weeks, effectively permitting an analysis of changes in IDO activity following treatment with vaccine alone, pembrolizumab alone, or the combination. […] IFNγ concentration was also directly evaluated in sera samples.

For the next assay, the system named is T-cell activation. The conditions noted are these: literature (ref 22); cited from earlier work.

For “IDO enzyme: indoleamine 2,3 dioxygenase enzyme added to the PBMC cultures”, the “detection of PAP-specific IFNγ-secreting cells by ELISPOT” value in assay [1] was “tended to suppress”.

With pembrolizumab, the “median kyn:trp ratio post-treatment” value in the assay on IDO activity (after 12 weeks of treatment) was found to be 0.066. Besides, the “median kyn:trp ratio pre-treatment” value in the assay on IDO activity (before the 12-week treatment period) was 0.061.

As to `Cn1cc(C[C@H](N)C(=O)O)c2ccccc21` [1-methyltryptophan], in the assay on T-cell activation, the “effect on T-cell activation in vitro” value is given as “enhance T-cell activation in vitro”. In addition, the “detection of PAP-specific IFNγ-secreting cells by ELISPOT” value in assay [1] is listed as “increased the detection of IFNγ-secreting PAP-specific cells”.
